Calls of active or inactive are those of the source. The rule behind the calls is not given here.
Columns and labels:
Type in all cases: functional
Rattus norvegicus [1] = assay: Antihypertensive activity in spontaneous hypertensive rat model assessed as change in blood pressure at 100 mg/kg, po on day 1 and 3 measured 2 hrs post dose on day 1 by standard 3-day test
Rattus norvegicus [2] = assay: Antihypertensive activity in spontaneous hypertensive rat model assessed as change in blood pressure at 100 mg/kg, po on day 1 and 3 measured 2 hrs post dose on day 3 by standard 3-day test
Rattus norvegicus [3] = assay: Antihypertensive activity in spontaneous hypertensive rat model assessed as change in blood pressure at 50 mg/kg, po on day 1 and 3 measured 2 hrs post dose on day 3 by standard 3-day test

SMILES	Activity (Rattus norvegicus [1])	Activity (Rattus norvegicus [2])	Activity (Rattus norvegicus [3]) [mmHg]
Cc1[nH]c2ccccc2c1CCN1CCN(NC(=O)c2ccc([N+](=O)[O-])cc2)CC1	25 mmHg	20 mmHg	–
O=C(NN1CCN(CCc2c[nH]c3ccccc23)CC1)c1cccc(C(F)(F)F)c1	49 mmHg	19 mmHg	–
Cc1[nH]c2ccccc2c1CCN1CCN(NC(=O)c2ccccc2)CC1	39 mmHg	37 mmHg	–
O=C(NN1CCN(CCc2c[nH]c3ccccc23)CC1)C1CCCCC1	37 mmHg	35 mmHg	–
COc1cc(C(=O)NN2CCN(Cc3c[nH]c4ccccc34)CC2)cc(OC)c1OC	20 mmHg	36 mmHg	–
O=C(NN1CCN(CCc2c[nH]c3ccccc23)CC1)c1ccccc1F	47 mmHg	56 mmHg	–
O=C(NN1CCN(Cc2c[nH]c3ccccc23)CC1)c1ccc(F)cc1	Active	Active	–
COc1ccc(C(=O)NN2CCN(CCc3c[nH]c4ccccc34)CC2)cc1	25 mmHg	19 mmHg	–
COc1cccc(C(=O)NN2CCN(CCc3c[nH]c4ccccc34)CC2)c1	21 mmHg	2 mmHg	–
COc1cc2[nH]c(C)c(CCN3CCN(NC(=O)c4ccccc4OC)CC3)c2cc1OC.Cl	4 mmHg	15 mmHg	–
COc1cc(OC)cc(C(=O)NN2CCN(CCc3c[nH]c4ccccc34)CC2)c1	46 mmHg	111 mmHg	–
O=C(NN1CCN(CCc2c[nH]c3ccccc23)CC1)c1ccc(C(F)(F)F)cc1	9 mmHg	36 mmHg	–
Cc1cccc(C(=O)NN2CCN(CCc3c[nH]c4ccccc34)CC2)c1	17 mmHg	26 mmHg	–
Cc1[nH]c2ccccc2c1CCN1CCN(NC(=O)c2ccc(F)cc2)CC1	29 mmHg	25 mmHg	–
O=C(NN1CCN(Cc2c[nH]c3ccccc23)CC1)c1ccccc1	Active	Active	–
CC(=O)NN1CCN(CCc2c[nH]c3ccccc23)CC1	32 mmHg	40 mmHg	–
COc1cc2[nH]c(C)c(CCN3CCN(NC(=O)c4ccccc4)CC3)c2cc1OC	9 mmHg	12 mmHg	–

SMILES	Activity (Rattus norvegicus [1])	Activity (Rattus norvegicus [2])	Activity (Rattus norvegicus [3]) [mmHg]
O=C(NN1CCN(CCc2c[nH]c3ccccc23)CC1)C(c1ccccc1)c1ccccc1	3 mmHg	10 mmHg	–
O.O=C(NN1CCN(CCc2c[nH]c3ccccc23)CC1)c1ccccc1	24 mmHg	56 mmHg	–
O=C(NN1CCN(CCc2c[nH]c3ccccc23)CC1)c1ccco1	58 mmHg	64 mmHg	–
O=C(NN1CCN(CCc2c[nH]c3ccccc23)CC1)C1CC2CCC1C2 (stereo unspecified)	20 mmHg	11 mmHg	–
Cc1ccc(C(=O)NN2CCN(CCc3c[nH]c4ccccc34)CC2)cc1	18 mmHg	43 mmHg	–
Cc1ccccc1C(=O)NN1CCN(CCc2c[nH]c3ccccc23)CC1	19 mmHg	19 mmHg	–
COc1cc2[nH]c(C)c(CCN3CCN(NC(=O)c4ccc(C(F)(F)F)cc4)CC3)c2cc1OC.Cl	2 mmHg	5 mmHg	–
O=C(NN1CCN(CCc2c[nH]c3ccccc23)CC1)c1ccc(F)cc1	56 mmHg	57 mmHg	–
O=C(NN1CCN(CC(O)c2c[nH]c3ccccc23)CC1)c1ccccc1 (racemic)	30 mmHg	33 mmHg	–
O=C(NN1CCN(CCc2c[nH]c3ccccc23)CC1)c1ccc([N+](=O)[O-])cc1	17 mmHg	16 mmHg	–
COc1cc(C(=O)NN2CCN(CCc3c[nH]c4ccccc34)CC2)cc(OC)c1OC	63 mmHg	70 mmHg	–
COc1ccccc1C(=O)NN1CCN(CCc2c[nH]c3ccccc23)CC1	7 mmHg	23 mmHg	–
O=C(NN1CCN(CCc2c[nH]c3ccccc23)CC1)c1ccc(Cl)cc1	17 mmHg	22 mmHg	–
Cl.O=C(NC1CCN(CCc2c[nH]c3ccccc23)CC1)c1ccccc1 [INDORAMIN HYDROCHLORIDE]	63 mmHg	–	79
COc1cc2[nH]c(C)c(CCN3CCN(NC(=O)c4ccc(F)cc4)CC3)c2cc1OC	9 mmHg	23 mmHg	–
O=C(NN1CCN(CCc2c[nH]c3ccccc23)CC1)c1ccncc1	23 mmHg	24 mmHg	–
